Test results reported in US20050020544A1, “Bicyclic CB2 cannabinoid receptor ligands” (priority 2002, published 2005).

How the values were obtained:
Assay type in all cases: in vivo, mouse
Adult female BALB/c mice = settings: i.p. twice
Procedure: Adult female BALB/c mice (20 g average body weight, Harlan, Israel) were sensitized on day 0 and day 1 by application of 30 μl of 0.15% Dinitrofluorobenzene (DNFB) diluted in acetone on the shaved skin of the abdomen. On day 6 the animals were challenged by application of 10 μl of DNFB in acetone on one ear. The contralateral ear was not challenged but received the application of 10 μl acetone. Test compounds were administered at increasing doses from 0 to 15 mg/kg i.p. twice, the first injection was immediately after DNFB challenge (on day 6) and the second injection was 16 hours post challenge (on day 7). Each treatment group comprised at least 7 animals. Dexamethasone (DXM) was used as positive control. Ear thickness was determined (in 0.01 mm units) 24 hours after challenge (and 6 hours after second treatment on day 7) using a dial thickness gauge (Mitutoyo, Japan).
Results are analyzed as ear thickness of DNFB treated over DNFB untreated contralateral ear. The impact of the test compound was further assessed by comparing its mean impact on the animals of the treatment group to the response generated by the appropriate vehicle only.

[1] = tested on: BALB/c inbred female mice; assay: ConA induced liver injury; settings: 1 mg/kg i.v., 8 hours of ConA treatment
Procedure: Each experimental group contains at least 5 BALB/c inbred female mice (25 g average weight, Harlan, Israel). The negative control group is composed of mice injected with saline instead of ConA. The injection of ConA (Sigma) is done i.v. at the base of the tail at the dose of 10 mg/kg in saline. The treatments are injected i.v. at 1 mg/kg, 30 minutes prior to the ConA injection. Compounds are dissolved in CREMOPHOR EL®:ethanol and vehicle only was included as an internal control.
Impact of treatment is monitored at three levels. First, blood samples (200-400 μl) are collected at predetermined time points alter ConA injection, using retro-orbital puncture. After short centrifugation (5000 rpm for 2 min) serum is recovered and stored at −80° C. until further use for determination of cytokines levels by ELISA and aminotransferase leakage from the liver as a marker for liver injury. In parallel, the level of cytokines, or other inflammatory mediators, is also determined in the organs of interests. For this purpose, the mice are killed by dislocation of the cervical vertebrae, at predetermined time points following ConA injection. […] Cells are incubated for 24 hours and cytokine levels in the supernatant are determined by ELISA as previously described.
The effect of compound A on liver injury was assessed by measuring the level of ALT in the plasma following 8 hours of ConA treatment. […]

adult male ICR mice = assay: Ear edema model (Croton oil); settings: 3 hours after Croton oil
Procedure: The anti-inflammatory activity of the novel bicyclic CB2 ligands was screened in vivo using an ear edema model in mice. This test system utilizes various inflammation inducers, including Croton oil (CO) and Arachidonic acid (AA) and the outcome is assessed by measuring ear tissue swelling. […] The ability of the test compounds to prevent or diminish the inflammatory response to these stimulants is indicative of their systemic anti-inflammatory capability.
Compound A was dissolved in CREMOPHOR EL®:ethanol and injected i.p. in adult male ICR mice (30 g average body weight, Harlan, Israel) after dilution with sterile 0.9% sodium chloride to desired final concentrations according to required doses. Various doses of compounds were checked ranging from 0 to 30 mg/kg. Each treatment group was composed of 8-10 animals while the vehicle treated group was composed of 16 animals. […] Ear thickness was determined (in 0.01 mm units) 3 hours after CO application using a dial thickness gauge (Mitutoyo, Japan). Finally the ears were trimmed, an ear punch of 6 mm diameter was removed and its weight was measured. The ear edema is expressed as the ratio of ear punch weight of the CO treated ear versus the contralateral Acetone treated ear. Results are calculated as % inhibition as compared to CREMOPHOR EL®:ethanol vehicle treated animals.

Male ICR mice = assay: Visceral pain induced by i.p. acetic acid
Procedure: Male ICR mice (25 g average body weight, Harlan, Israel) were pretreated by i.v. injection at volume dose of 5 ml/kg of vehicle, control and test compounds at various doses. Each treatment group was composed of at least 4 animals. Fifteen minutes later, the mice were injected i.p. with 10 ml/kg of 0.6% acetic acid and the number of withers is counted over a period of 5 minutes, starting 5 minutes after the acetic acid administration. The results are expressed as mean number of withers±SD.

SMILES | calculated IC50 reduction in ear thickness (Adult female BALB/c mice) | maximal inhibition (reduction in ear thickness) (Adult female BALB/c mice; doses 0 to 15 mg/kg, 24 hours after challenge) | decrease in ALT in the plasma [1] | ED50 (adult male ICR mice; Mus musculus, ip) | ED50 ear edema (adult male ICR mice; i.p.) | inhibition of number of withers as compared to vehicle (Male ICR mice; 0.5 mg/kg i.v.) | number of withers (Male ICR mice; 0.5 mg/kg i.v., mean±SD) | inhibition of number of withers as compared to vehicle (Male ICR mice; 1 mg/kg i.v.) | number of withers (Male ICR mice; 1 mg/kg i.v., mean±SD) | inhibition of number of withers as compared to vehicle (Male ICR mice; 2 mg/kg i.v.) | number of withers (Male ICR mice; 2 mg/kg i.v.)
CCCCCCC(C)(C)c1cc(OC)c(C2C=C(CO)C3CC2C3(C)C)c(OC)c1 (single isomer, unassigned; (+)) [HU-308, (+) {4-[4-(1,1-dimethylheptyl)-2,6-dimethoxy-phenyl]-6,6-dimethyl-bicyclo[3.1.1]hept-2-en-2-yl}-methanol, reference compound] | 4.8 mg/kg | ~60% |  |  |  |  |  |  |  |  | 
CCCCCCC(C)(C)c1cc(O)c(C2CC(=O)C3CC2C3(C)C)c(O)c1 (single isomer, unassigned; (-)) [Compound A, (−)-4-[4-(1,1-Dimethyl-heptyl)2,6-dihydroxy-phenyl]-6,6-dimethyl-bicyclo[3.1.1)heptan-2-one] |  |  | 65% | 30 mg/kg | 81 µmol/kg | 64% | 7.9±4.8 | 95% | 1.2±0.6 | 100% | no withers at all
